Experimental data from PubChem BioAssay AID256 (DTP/NCI, 2004).
Values joined by “and” are separate entries in the source; they are usually repeats but may differ in a detail not shown here. Equal entries are not always repeated. Inconclusive results and toxic doses are left out.

Tested on: CD2F1 mice, L1210 leukemia ip, survival T/C
Assay: NCI In Vivo Anticancer Drug Screen. Data for tumor model L1210 Leukemia (intraperitoneal) in CD2F1 (CDF1) mice
Details: higher = longer survival
Summary of the method: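 Vehicle-treated tumor-bearing mice served as controls (C) for compound-treated mice (T). Reported figure is T divided by C.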

[1] = endpoint: mean survival time, dose: 100.0 mg/kg/injection, schedule: Q04DX003 (ip), vehicle: saline with Tween-80
[2] = endpoint: mean survival time, dose: 200.0 mg/kg/injection, schedule: Q04DX003 (ip), vehicle: saline with Tween-80
[3] = endpoint: mean survival time, dose: 400.0 mg/kg/injection, schedule: Q04DX003 (ip), vehicle: saline with Tween-80
[4] = endpoint: mean survival time, dose: 100.0 mg/kg/injection, schedule: Q04DX002 (ip), vehicle: saline with Tween-80
[5] = endpoint: mean survival time, dose: 25.0 mg/kg/injection, schedule: Q01DX009 (ip), vehicle: saline with Tween-80
[6] = endpoint: mean survival time, dose: 50.0 mg/kg/injection, schedule: Q01DX009 (ip), vehicle: saline with Tween-80
[7] = endpoint: mean survival time, dose: 100.0 mg/kg/injection, schedule: Q01DX009 (ip), vehicle: saline with Tween-80
[8] = endpoint: mean survival time, dose: 200.0 mg/kg/injection, schedule: Q01DX009 (ip), vehicle: saline with Tween-80
[9] = endpoint: mean survival time, dose: 400.0 mg/kg/injection, schedule: Q01DX009 (ip), vehicle: saline with Tween-80
[10] = endpoint: mean survival time, dose: 100.0 mg/kg/injection, schedule: Q01DX001 (ip), vehicle: saline with Tween-80
[11] = endpoint: mean survival time, dose: 400.0 mg/kg/injection, schedule: Q01DX001 (ip), vehicle: saline with Tween-80
[12] = endpoint: mean survival time, dose: 200.0 mg/kg/injection, schedule: Q01DX001 (ip), vehicle: saline with Tween-80
[13] = endpoint: mean survival time, dose: 100.0 mg/kg/injection, schedule: Q04DX002 (ip), vehicle: saline
[14] = endpoint: mean survival time, dose: 200.0 mg/kg/injection, schedule: Q04DX002 (ip), vehicle: saline
[15] = endpoint: mean survival time, dose: 400.0 mg/kg/injection, schedule: Q04DX002 (ip), vehicle: saline

Cn1cnc([N+](=O)[O-])c1[Se]c1nc(N)nc2c1ncn2C1OC(CO)C(O)C1O (centres undefined)
T/C (endpoint: mean survival time, dose: 2.0 mg/kg/injection, schedule: Q01DX009 (ip), vehicle: distilled water + Tween-80): 114 % of control | T/C (endpoint: mean survival time, dose: 4.0 mg/kg/injection, schedule: Q01DX009 (ip), vehicle: distilled water + Tween-80): 112 % of control | T/C (endpoint: mean survival time, dose: 8.0 mg/kg/injection, schedule: Q01DX009 (ip), vehicle: distilled water + Tween-80): 108 % of control and 110 % of control | T/C (endpoint: mean survival time, dose: 12.5 mg/kg/injection, schedule: Q01DX005 (ip), vehicle: saline): 166 % of control | T/C (endpoint: mean survival time, dose: 25.0 mg/kg/injection, schedule: Q01DX005 (ip), vehicle: saline): 175 % of control | T/C (endpoint: mean survival time, dose: 50.0 mg/kg/injection, schedule: Q01DX005 (ip), vehicle: saline): 176 % of control | T/C (endpoint: mean survival time, dose: 64.0 mg/kg/injection, schedule: Q01DX009 (ip), vehicle: distilled water + Tween-80): 98 % of control

C=CC(C)(C)n1cc(C2=C(O)C(=O)C(c3cn(C(C)(C)C=C)c4ccccc34)=C(O)C2=O)c2ccccc21
T/C (endpoint: mean survival time, dose: 2.5 mg/kg/injection, schedule: Q01DX009 (ip), vehicle: Klucel (hydroxypropylcellulose) (HPC)): 97 % of control | T/C (endpoint: mean survival time, dose: 2.5 mg/kg/injection, schedule: Q01DX009 (ip), vehicle: carboxymethylcellulose (CMC)): 100 % of control | T/C (endpoint: mean survival time, dose: 5.0 mg/kg/injection, schedule: Q01DX009 (ip), vehicle: Klucel (hydroxypropylcellulose) (HPC)): 93 % of control | T/C (endpoint: mean survival time, dose: 5.0 mg/kg/injection, schedule: Q01DX009 (ip), vehicle: carboxymethylcellulose (CMC)): 100 % of control | T/C (endpoint: mean survival time, dose: 9.0 mg/kg/injection, schedule: Q01DX009 (ip), vehicle: carboxymethylcellulose (CMC)): 96 % of control | T/C (endpoint: mean survival time, dose: 10.0 mg/kg/injection, schedule: Q01DX009 (ip), vehicle: Klucel (hydroxypropylcellulose) (HPC)): 91 % of control | T/C (endpoint: mean survival time, dose: 10.0 mg/kg/injection, schedule: Q01DX009 (ip), vehicle: carboxymethylcellulose (CMC)): 98 % of control | T/C (endpoint: mean survival time, dose: 18.0 mg/kg/injection, schedule: Q01DX009 (ip), vehicle: carboxymethylcellulose (CMC)): 98 % of control | T/C (endpoint: mean survival time, dose: 20.0 mg/kg/injection, schedule: Q01DX009 (ip), vehicle: Klucel (hydroxypropylcellulose) (HPC)): 93 % of control | T/C (endpoint: mean survival time, dose: 20.0 mg/kg/injection, schedule: Q01DX009 (ip), vehicle: carboxymethylcellulose (CMC)): 98 % of control | T/C (endpoint: mean survival time, dose: 26.0 mg/kg/injection, schedule: Q01DX009 (ip), vehicle: carboxymethylcellulose (CMC)): 94 % of control | T/C (endpoint: mean survival time, dose: 40.0 mg/kg/injection, schedule: Q01DX009 (ip), vehicle: Klucel (hydroxypropylcellulose) (HPC)): 93 % of control | T/C (endpoint: mean survival time, dose: 40.0 mg/kg/injection, schedule: Q01DX009 (ip), vehicle: carboxymethylcellulose (CMC)): 93 % of control | T/C (endpoint: mean survival time, dose: 60.0 mg/kg/injection, schedule: Q01DX009 (ip), vehicle: carboxymethylcellulose (CMC)): 100 % of control | T/C (endpoint: median survival time, dose: 5.0 mg/kg/injection, schedule: Q01DX009 (ip), vehicle: Klucel (hydroxypropylcellulose) (HPC)): 101 % of control | T/C (endpoint: median survival time, dose: 10.0 mg/kg/injection, schedule: Q01DX009 (ip), vehicle: Klucel (hydroxypropylcellulose) (HPC)): 100 % of control and 102 % of control | T/C (endpoint: median survival time, dose: 20.0 mg/kg/injection, schedule: Q01DX009 (ip), vehicle: Klucel (hydroxypropylcellulose) (HPC)): 97 % of control and 100 % of control | T/C (endpoint: median survival time, dose: 40.0 mg/kg/injection, schedule: Q01DX009 (ip), vehicle: Klucel (hydroxypropylcellulose) (HPC)): 115 % of control and 109 % of control

OC(c1ccccc1)(c1ccccc1)C(Cc1ccccc1)Cc1ccccc1
T/C [1]: 102 % of control | T/C [2]: 100 % of control | T/C [3]: 94 % of control

CC(=O)CCC(=O)OC1CCCCC1
T/C [1]: 102 % of control | T/C [2]: 97 % of control | T/C [3]: 97 % of control

CCCOC(=O)Nc1ccccn1
T/C [4]: 108 % of control | T/C (endpoint: mean survival time, dose: 200.0 mg/kg/injection, schedule: Q04DX002 (ip), vehicle: saline with Tween-80): 108 % of control | T/C (endpoint: mean survival time, dose: 400.0 mg/kg/injection, schedule: Q04DX002 (ip), vehicle: saline with Tween-80): 97 % of control

CCCCCCN=C(N)NC(=O)OC
T/C (endpoint: mean survival time, dose: 6.25 mg/kg/injection, schedule: Q01DX009 (ip), vehicle: saline with Tween-80): 87 % of control | T/C (endpoint: mean survival time, dose: 12.5 mg/kg/injection, schedule: Q01DX009 (ip), vehicle: saline with Tween-80): 100 % of control | T/C [5]: 100 % of control

Cc1nc2ccc(N)cc2[nH]1
T/C (endpoint: mean survival time, dose: 50.0 mg/kg/injection, schedule: Q01DX009 (ip), vehicle: saline): 95 % of control | T/C (endpoint: mean survival time, dose: 100.0 mg/kg/injection, schedule: Q01DX009 (ip), vehicle: saline): 113 % of control | T/C (endpoint: mean survival time, dose: 200.0 mg/kg/injection, schedule: Q01DX009 (ip), vehicle: saline): 95 % of control

Cc1nc2ccccc2n1C
T/C [5]: 105 % of control | T/C [6]: 96 % of control | T/C [7]: 104 % of control

Nc1ncnc(N)c1NC(=O)c1cccc(OCc2ccccc2)c1
T/C [1]: 100 % of control | T/C [2]: 91 % of control | T/C [3]: 94 % of control

CN(C)S(=O)(=O)c1ccccc1C(O)(c1ccccc1)c1ccccc1
T/C [7]: 103 % of control | T/C [1]: 104 % of control | T/C [8]: 94 % of control | T/C [2]: 101 % of control | T/C [9]: 101 % of control | T/C [3]: 98 % of control

CCC1=C[C@H]2CN(CCc3c([nH]c4ccccc34)[C@@](C(=O)OC)(c3cc4c(cc3OC)N(C)[C@H]3[C@@](O)(C(=O)NC)[C@H](OC(C)=O)[C@]5(CC)C=CCN6CC[C@]43[C@@H]65)C2)C1
T/C (endpoint: mean survival time, dose: 0.03 mg/kg/injection, schedule: Q01DX009 (ip), vehicle: water): 101 % of control | T/C (endpoint: mean survival time, dose: 0.06 mg/kg/injection, schedule: Q01DX009 (ip), vehicle: water): 111 % of control

O=C(O)C(O)C(O)C(O)C(O)C(=O)O.[NH-]C1CCCCC1[NH-].[Pt+2] (centres undefined)
T/C (endpoint: median survival time, dose: 6.25 mg/kg/injection, schedule: Q04DX003 (ip), vehicle: saline): 116 % of control and 112 % of control | T/C (endpoint: median survival time, dose: 12.5 mg/kg/injection, schedule: Q04DX003 (ip), vehicle: saline): 121 % of control and 123 % of control | T/C (endpoint: median survival time, dose: 25.0 mg/kg/injection, schedule: Q04DX003 (ip), vehicle: saline): 123 % of control | T/C (endpoint: median survival time, dose: 50.0 mg/kg/injection, schedule: Q04DX003 (ip), vehicle: saline): 151 % of control and 152 % of control | T/C (endpoint: median survival time, dose: 100.0 mg/kg/injection, schedule: Q04DX003 (ip), vehicle: saline): 167 % of control and 187 % of control

O=[N+]([O-])c1cccc(Cc2nc3ccccc3nc2-c2ccccc2)c1
T/C [10]: 94 % of control | T/C [11]: 91 % of control

CN(C)c1cccc(C(C)(C)C)n1
T/C (endpoint: mean survival time, dose: 12.5 mg/kg/injection, schedule: Q04DX002 (ip), vehicle: saline): 98 % of control | T/C (endpoint: mean survival time, dose: 25.0 mg/kg/injection, schedule: Q04DX002 (ip), vehicle: saline): 106 % of control | T/C (endpoint: mean survival time, dose: 50.0 mg/kg/injection, schedule: Q04DX002 (ip), vehicle: saline): 95 % of control

Cc1ccc(SC(=O)Cc2ccc([N+](=O)[O-])cc2)cc1
T/C [10]: 92 % of control | T/C [12]: 88 % of control | T/C [11]: 93 % of control

CC(=O)OC1CCC2(C)C(CCC3C2CCC2(C)C3CC3OC(CCC(C)O)C(C)C32)C1 (centres undefined)
T/C [4]: 86 % of control

O=S(=O)(O)O.[Ga]
T/C [5]: 120 % of control | T/C [6]: 117 % of control | T/C [7]: 90 % of control

c1ccc(C(c2ccccc2)c2ccccc2)cc1
T/C [1]: 97 % of control | T/C [2]: 98 % of control

CCCCCCCCCCCCOC(=O)c1ccc([N+](=O)[O-])cc1
T/C [10]: 94 % of control | T/C [12]: 91 % of control | T/C [11]: 91 % of control

[CH3][Sn]1([CH3])[O]C2C(CO)OC(n3ccc4c(N)ncnc43)C2[O]1 (centres undefined)
T/C (endpoint: mean survival time, dose: 0.78 mg/kg/injection, schedule: Q01DX005 (ip), vehicle: other): 111 % of control | T/C (endpoint: mean survival time, dose: 1.56 mg/kg/injection, schedule: Q01DX005 (ip), vehicle: other): 107 % of control | T/C (endpoint: mean survival time, dose: 3.13 mg/kg/injection, schedule: Q01DX005 (ip), vehicle: other): 115 % of control

C=C1C(=O)O[C@H]2C[C@@H](C)[C@@H]3[C@@H](O)C[C@@H](O)[C@@]3(C)C[C@H]12
T/C [7]: 100 % of control | T/C [1]: 102 % of control | T/C [8]: 94 % of control | T/C [2]: 96 % of control | T/C [9]: 100 % of control | T/C [3]: 103 % of control

COc1ccc2c(c1)CC/C2=N/O
T/C [1]: 97 % of control | T/C [2]: 103 % of control | T/C [3]: 107 % of control

CN(C)CCCNC(=O)c1ccc(N)cc1
T/C [13]: 102 % of control | T/C [14]: 105 % of control | T/C [15]: 97 % of control

[Cl][Cr][Cl].[NH-]CC[NH-].[NH-]CC[NH-]
T/C [13]: 95 % of control | T/C [14]: 95 % of control | T/C [15]: 88 % of control
